Test results: publication PMC11558128 (Advanced Science, 2024)
Positions of bridges follow the written chain, without caps; N, C: chain ends. Residues, ends and D or L forms follow the SMILES beside them.

Legend:
rKv4.2 T280A = target: T1, rKv4.2 T280A (Rattus norvegicus, UniProt Q63881, T280A); assay: cell-based; conditions: mean ± SEM
T1 construct: expressed in transfected cells; host or cells: HEK293T
T1 sequence (Q63881 1-630 T280A): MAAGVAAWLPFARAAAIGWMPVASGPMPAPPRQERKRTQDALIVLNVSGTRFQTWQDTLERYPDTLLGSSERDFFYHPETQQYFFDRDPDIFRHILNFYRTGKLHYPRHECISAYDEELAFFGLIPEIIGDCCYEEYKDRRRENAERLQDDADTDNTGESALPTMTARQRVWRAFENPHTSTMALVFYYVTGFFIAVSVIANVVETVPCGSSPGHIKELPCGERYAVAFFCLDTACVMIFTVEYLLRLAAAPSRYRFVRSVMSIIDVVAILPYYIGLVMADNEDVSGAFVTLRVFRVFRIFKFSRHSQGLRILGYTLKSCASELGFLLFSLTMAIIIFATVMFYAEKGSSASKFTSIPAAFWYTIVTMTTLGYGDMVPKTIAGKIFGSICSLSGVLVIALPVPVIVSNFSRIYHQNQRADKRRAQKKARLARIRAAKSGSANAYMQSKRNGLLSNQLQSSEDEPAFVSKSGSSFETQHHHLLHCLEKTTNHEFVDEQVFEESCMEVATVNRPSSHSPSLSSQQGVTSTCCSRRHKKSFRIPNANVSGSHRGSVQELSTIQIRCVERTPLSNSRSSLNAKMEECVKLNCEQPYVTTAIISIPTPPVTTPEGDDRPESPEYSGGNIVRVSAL

[1] = tested on: native Nav channels of rat primary cardiomyocytes; conditions: 5 µM; n = 5
[2] = tested on: acutely isolated rat cardiomyocytes; conditions: 5 µM; for effect on action potential duration (APD): n = 5-6
C57BL/6 mice = assay: Open field test; type: in vivo, mouse; conditions: 2 mg kg-1 i.p.; 2 min; vs saline; n = 4, p = 0.2000
Procedure: Open Field Test: The C57BL/6 mice (weight 18–20 g, 6–8 weeks, both sex) were randomly assigned to one of two groups: Saline (2 males and 2 females) and 2 mg kg^−1 mGpTx1‐SA (2 males and 2 females). All mice received intraperitoneal administration of the respective substances and were allowed 20 min for the drugs to take effect. Following drug administration, the mice were individually placed in square transparent chambers (50 × 50 cm). They were allowed to explore freely under normal light. The movements and trajectories of the mice were recorded using video and computer systems over a 2‐minute period for subsequent analysis.

ICR mice [3] = assay: Forced swimming test; type: in vivo, mouse; conditions: 2 mg kg-1 i.p.; vs saline; n = 5, p = 0.8413
Procedure: Forced Swimming Test: ICR mice (weight 18–20 g, 6–8 weeks, both sex) were subjected to forced swimming training for 8 min per day over a span of 4 days. […] On the 5th day, the remaining mice were randomly assigned to one of two groups: Saline (3 males and 2 females) and the 2 mg kg^−1 mGpTx1‐SA (3 males and 2 females). All groups received intraperitoneal administration and were allowed 20 min for the drug to take effect before behavioral tests commenced. Swimming time was recorded for a duration of 4 min within a 6‐minute timeframe following drug administration.

[4] = tested on: native Kv channels of rat primary cardiomyocytes; conditions: 5 µM; n = 5
ICR mice [5] = assay: Surface electrocardiogram (ECG) recording in ICR mice; type: in vivo, mouse
Procedure: Surface Electrocardiographic (ECG) Recording: ICR mice (weight 18–20 g, 6–8 weeks, both sex) were lightly anesthetized with 3% halothane for Surface electrocardiograms (ECG), which were recorded by placing dry electrodes carefully wrapped around each of the mouse's four limbs. The data of physiological effects of intravenous administration of 0.3 mg kg^−1 mGpTx1 (4 males and 4 females) or 2 mg kg^−1 mGpTx1‐SA (3 males and 2 females) for 5 min were collected by PowerLab 2/28 and LabChart 8 (AD Instruments, Bella Vista, Australia) and analyzed standard ECG parameters by along with its accompanying ECG analysis plug‐in. For each mouse, the data of 8 cardiac cycles before and after administration were averaged for analysis.

ICR mice [6] = assay: Rotarod test; type: in vivo, mouse; conditions: 2 mg kg-1 i.p.; vs saline; n = 5-6, p > 0.9999
Procedure: In Vivo Safety Evaluation: Rotarod Test: ICR mice (weight 18–20 g, 6–8 weeks, both sex) were trained on a rotarod at a constant speed of 20 rpm for 8 min per day. […] On the 5th day, the remaining mice were randomly divided into two groups: Saline (3 males and 2 females) and 2 mg kg^−1 mGpTx1‐SA (3 males and 3 females). All groups were administered intraperitoneally and allowed 20 minutes for the drug to take effect before behavioral tests were conducted. The total motor time of the animals during 300 s was recorded for analysis.

## CC[C@H](C)[C@H](NC(=O)[C@H](CCC(=O)O)NC(=O)[C@H](Cc1ccc(O)cc1)NC(=O)[C@H](CCCCN)NC(=O)[C@@H]1CSSC[C@@H]2NC(=O)[C@H](CCC(N)=O)NC(=O)[C@H](CC(=O)O)NC(=O)[C@H](CC(N)=O)NC(=O)[C@H](CO)NC(=O)[C@@H]3CCCN3C(=O)[C@H](CC(N)=O)NC(=O)[C@@H]3CSSC[C@H](NC(=O)[C@H](C(C)C)NC(=O)[C@H](CC(C)C)NC(=O)[C@H](CC(N)=O)NC(=O)[C@H](CO)NC(=O)[C@H](CO)NC(=O)[C@H](CCCCN)NC(=O)[C@H](CSSC[C@H](NC(=O)[C@@H](N)CCC(=O)O)C(=O)N[C@@H](CC(C)C)C(=O)NCC(=O)N[C@@H](Cc4ccccc4)C(=O)NCC(=O)N[C@@H](CCCCN)C(=O)NCC(=O)N3)NC2=O)C(=O)N[C@@H](CO)C(=O)N[C@@H](CCCNC(=N)N)C(=O)N[C@@H](CCCCN)C(=O)N[C@@H](Cc2c[nH]cn2)C(=O)N[C@@H](CCCNC(=N)N)C(=O)N[C@@H](Cc2c[nH]c3ccccc23)C(=O)N1)C(N)=O [HNTX-IV]
rKv4.2 T280A
  IC50: 0.136 ± 0.021 µM

## CC(C)C[C@@H]1NC(=O)[C@H](Cc2c[nH]c3ccccc23)NC(=O)[C@H](Cc2ccc(O)cc2)NC(=O)[C@H](CCCNC(=N)N)NC(=O)[C@@H](NC(=O)[C@@H](N)CCC(=O)O)CSSC[C@@H]2NC(=O)[C@@H]3CSSC[C@@H](C(=O)N[C@H](C(=O)N[C@@H](Cc4c[nH]c5ccccc45)C(=O)N[C@@H](CC(=O)O)C(=O)N[C@@H](Cc4c[nH]c5ccccc45)C(=O)N[C@H](C(=O)N[C@@H](Cc4ccccc4)C(N)=O)[C@@H](C)O)C(C)C)NC(=O)[C@H](Cc4c[nH]c5ccccc45)NC(=O)CNC(=O)[C@H](Cc4c[nH]cn4)NC(=O)[C@H](CCCCN)NC(=O)[C@@H]4CCCN4C(=O)[C@H](CO)NC(=O)[C@H](CSSC[C@H](NC(=O)[C@H]([C@@H](C)O)NC(=O)CNC1=O)C(=O)N[C@@H](CO)C(=O)N[C@@H](CCCCN)C(=O)N[C@@H]([C@@H](C)O)C(=O)NCC(=O)N[C@@H](CC(=O)O)C(=O)N3)NC(=O)[C@H](CO)NC(=O)[C@H](CC(C)C)NC(=O)[C@H](Cc1c[nH]cn1)NC(=O)[C@H](CO)NC2=O [HNTX-VIIa] (H-ECRYWLGTCSKTGDCCSHLSCSPKHGWCVWDWTF-NH2; disulfide 2-16, 9-21, 15-28)
rKv4.2 T280A
  IC50: 0.013 ± 0.002 µM

## CC[C@H](C)[C@@H]1NC(=O)[C@@H]2CSSC[C@@H]3NC(=O)[C@H](C(C)C)NC(=O)[C@H](CC(C)C)NC(=O)[C@H](CC(N)=O)NC(=O)[C@@H]4CCCN4C(=O)[C@H](CCCNC(=N)N)NC(=O)[C@H](CSSC[C@H](NC(=O)[C@@H](N)CC(=O)O)C(=O)N[C@@H](CC(C)C)C(=O)NCC(=O)N[C@@H](C)C(=O)N[C@@H](Cc4ccccc4)C(=O)N[C@@H](CCCNC(=N)N)C(=O)N[C@@H](CCCCN)C(=O)N2)NC(=O)[C@H](CSSC[C@@H](C(=O)N[C@@H](CCCCN)C(=O)N[C@@H](Cc2ccc(O)cc2)C(=O)N[C@H](C(=O)N[C@@H](Cc2ccccc2)C(N)=O)C(C)C)NC(=O)[C@H](Cc2c[nH]c4ccccc24)NC(=O)[C@H](CCCNC(=N)N)NC(=O)[C@H](Cc2c[nH]cn2)NC(=O)[C@H](C)NC(=O)[C@H](CO)NC(=O)[C@H](CO)NC3=O)NC(=O)[C@H](CCCCN)NC(=O)[C@H](CC(=O)O)NC(=O)[C@H](CC(N)=O)NC(=O)[C@H](CC(=O)O)NC(=O)[C@@H]2CCCN2C1=O [mGpTx1-SA] (H-DCLGAFRKCIPDNDKCCRPNLVCSSAHRWCKYVF-NH2; disulfide 2-17, 9-23, 16-30)
[1]
  inhibition of Nav currents in the primary cardiomyocytes: did not inhibit
[2]
  effect on AP amplitude: no significant changes
  effect on resting membrane potential (RMP): no significant changes
  effect on action potential duration (APD): no effect
C57BL/6 mice
  exploratory and locomotor behavior, open-field test: did not influence significantly
ICR mice [3]
  time spent on swimming: did not affect
[4]
  inhibition of Kv currents in the primary cardiomyocytes: did not inhibit
ICR mice [5]; 2 mg kg-1, tail vein, control 0.13 ± 0.01 s, n = 5, p = 0.3229
  RR interval: 0.13 ± 0.01 s
ICR mice [5]; 2 mg kg-1, tail vein, control 478.2 ± 24.3, n = 5, p = 0.8856
  heart rate: 475.3 ± 24.7
ICR mice [5]; 2 mg kg-1, tail vein, n = 5
  effect on the ECGs: no effect
ICR mice [6]
  balance time of mice on the rotarod test: did not affect

## CC[C@H](C)[C@@H]1NC(=O)[C@@H]2CSSC[C@@H]3NC(=O)[C@H](C(C)C)NC(=O)[C@H](CC(C)C)NC(=O)[C@H](CC(N)=O)NC(=O)[C@@H]4CCCN4C(=O)[C@H](CCCNC(=N)N)NC(=O)[C@H](CSSC[C@H](NC(=O)[C@@H](N)CC(=O)O)C(=O)N[C@@H](CC(C)C)C(=O)NCC(=O)N[C@@H](C)C(=O)N[C@@H](Cc4ccccc4)C(=O)N[C@@H](CCCNC(=N)N)C(=O)N[C@@H](CCCCN)C(=O)N2)NC(=O)[C@H](CSSC[C@@H](C(=O)N[C@@H](CCCCN)C(=O)N[C@@H](Cc2ccc(O)cc2)C(=O)N[C@H](C(=O)N[C@@H](Cc2ccccc2)C(N)=O)C(C)C)NC(=O)[C@H](Cc2c[nH]c4ccccc24)NC(=O)[C@H](CCCNC(=N)N)NC(=O)[C@H](Cc2cnc[nH]2)NC(=O)[C@H](CC(C)C)NC(=O)[C@H](CCCNC(=N)N)NC(=O)[C@H](CO)NC3=O)NC(=O)[C@H](CCCCN)NC(=O)[C@H](CC(=O)O)NC(=O)[C@H](CC(N)=O)NC(=O)[C@H](CC(=O)O)NC(=O)[C@@H]2CCCN2C1=O [mGpTx1] (H-DCLGAFRKCIPDNDKCCRPNLVCSRLHRWCKYVF-NH2; disulfide 2-17, 9-23, 16-30)
[2]
  effect on AP amplitude: no significant changes
  effect on resting membrane potential (RMP): no significant changes
  effect on action potential duration (APD): significantly prolonged
[2]; before treatment 51.7 ± 14.6 ms, n = 5, p = 0.0289
  APD at 90% repolarization (APD 90): 137.1 ± 36.3 ms
rKv4.2 T280A
  IC50: 0.15 ± 0.032 µM
ICR mice [5]; 0.3 mg kg-1, tail vein, control 0.07 ± 0.01 s, n = 8, p < 0.001
  QTc interval: 0.12 ± 0.01 s
ICR mice [5]; 0.3 mg kg-1, tail vein, control 0.12 ± 0.01 s, n = 8, p = 0.0088
  RR interval: 0.14 ± 0.01 s
ICR mice [5]; 0.3 mg kg-1, tail vein, control 0.20 ± 0.03 mV, n = 8, p = 0.0138
  T-wave amplitude: 0.09 ± 0.02 mV
ICR mice [5]; 0.3 mg kg-1, tail vein, control 508.4 ± 24.5, n = 8, p = 0.0045
  heart rate: 451.6 ± 27.1
ICR mice [5]; 0.3 mg kg-1, tail vein, n = 8
  effect on the ECGs: notably altered the shape of the ECGs
